Patent publication US20250381168A1, “VLA4 INHIBITORS AND USES THEREOF” (Washington University, priority 2022, published 2025)
Entries after “also recorded” stand apart in the source; their conditions may differ. Like-named read-outs stand apart in the source and are kept apart here.

Assays:
[1] = tested on: hematopoietic stem/progenitor cells (HSPCs); test: HSPC mobilization into peripheral blood, colony forming unit (CFU) assay; as to HSPC mobilization, result in words: test concentration or dose not given here; as to No. CFU (×10^3)/mL ± SD, 6 hr: test concentration or dose not given here; conditions: mice; for No. CFU (x10^3)/mL ± SD, 2 hr / No. CFU (x10^3)/mL ± SD, 4 hr / No. CFU (x10^3)/mL ± SD, 6 hr / No. CFU (x10^3)/mL ± SD, 8 hr: single injection; for No. CFU (x10^3)/mL ± SD, 2 hr: 2 hr post dose (TABLE 12); for No. CFU (x10^3)/mL ± SD, 4 hr: 4 hr post dose (TABLE 12); for No. CFU (x10^3)/mL ± SD, 6 hr: 6 hr post dose (TABLE 12); for No. CFU (x10^3)/mL ± SD, 8 hr: 8 hr post dose (TABLE 12)
integrin a4b7 = integrin a4b7 (Homo sapiens (Human), UniProt P13612+P26010); test: a4b7 solid phase receptor assay (SPRA); conditions: recombinant human a4b7 binding to plate-coated human VCAM1 (TABLE 4)
integrin a4b7, sequence (P13612 34-970): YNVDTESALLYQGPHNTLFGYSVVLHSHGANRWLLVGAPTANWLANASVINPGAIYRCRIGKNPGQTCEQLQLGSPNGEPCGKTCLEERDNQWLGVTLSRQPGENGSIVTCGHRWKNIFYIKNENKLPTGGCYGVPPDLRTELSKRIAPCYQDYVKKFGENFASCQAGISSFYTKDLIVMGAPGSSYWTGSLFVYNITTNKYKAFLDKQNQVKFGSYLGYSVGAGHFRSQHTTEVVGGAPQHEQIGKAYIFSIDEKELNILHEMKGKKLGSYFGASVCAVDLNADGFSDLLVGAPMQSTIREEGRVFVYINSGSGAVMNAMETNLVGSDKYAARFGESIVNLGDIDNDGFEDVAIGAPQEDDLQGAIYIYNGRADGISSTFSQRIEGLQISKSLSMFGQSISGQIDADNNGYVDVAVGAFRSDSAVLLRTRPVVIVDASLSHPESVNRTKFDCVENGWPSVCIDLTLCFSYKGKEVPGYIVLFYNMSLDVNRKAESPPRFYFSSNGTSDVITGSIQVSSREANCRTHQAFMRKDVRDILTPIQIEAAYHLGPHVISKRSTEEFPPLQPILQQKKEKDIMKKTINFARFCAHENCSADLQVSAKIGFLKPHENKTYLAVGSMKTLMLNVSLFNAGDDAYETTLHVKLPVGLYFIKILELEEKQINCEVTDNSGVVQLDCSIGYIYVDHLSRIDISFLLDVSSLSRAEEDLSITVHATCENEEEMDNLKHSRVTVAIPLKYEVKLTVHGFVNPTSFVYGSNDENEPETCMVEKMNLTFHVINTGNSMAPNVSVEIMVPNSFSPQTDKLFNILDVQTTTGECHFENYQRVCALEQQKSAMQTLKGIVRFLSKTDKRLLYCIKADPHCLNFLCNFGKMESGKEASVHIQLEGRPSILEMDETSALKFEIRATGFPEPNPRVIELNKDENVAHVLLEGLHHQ
integrin a4b7, sequence (P26010 20-723): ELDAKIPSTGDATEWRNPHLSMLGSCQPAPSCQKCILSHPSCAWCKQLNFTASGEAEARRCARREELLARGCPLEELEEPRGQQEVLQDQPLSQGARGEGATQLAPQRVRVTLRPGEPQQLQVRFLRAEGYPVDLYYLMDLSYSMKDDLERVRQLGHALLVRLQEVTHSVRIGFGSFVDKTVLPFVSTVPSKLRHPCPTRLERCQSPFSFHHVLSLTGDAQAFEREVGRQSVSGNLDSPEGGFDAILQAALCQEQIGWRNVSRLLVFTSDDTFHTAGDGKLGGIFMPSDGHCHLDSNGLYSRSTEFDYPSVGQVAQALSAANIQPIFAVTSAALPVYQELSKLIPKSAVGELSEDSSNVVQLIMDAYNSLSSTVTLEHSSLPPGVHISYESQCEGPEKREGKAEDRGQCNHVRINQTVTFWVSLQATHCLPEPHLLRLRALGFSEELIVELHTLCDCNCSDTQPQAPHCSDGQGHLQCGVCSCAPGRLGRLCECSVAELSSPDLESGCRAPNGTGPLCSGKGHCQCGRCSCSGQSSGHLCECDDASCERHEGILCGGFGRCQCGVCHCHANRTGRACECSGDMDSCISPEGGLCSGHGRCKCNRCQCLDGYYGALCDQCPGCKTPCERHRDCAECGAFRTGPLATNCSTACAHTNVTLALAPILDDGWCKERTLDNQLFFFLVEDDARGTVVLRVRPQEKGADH
Protocol: Wells were washed 3 times with TBS+ and blocking buffer (TBS+ with 1% bovine serum albumin), the plate was incubated for 1 hr at 37° C., and then washed 3× with TBS+ buffer. Recombinant human a4b7 (R & D Systems) was diluted to 1 μg/ml in TBS+/0.1% bovine serum albumin. Test compounds were diluted into the integrin solution and added to the washed ligand-coated plate according to a standard template with each sample repeated in triplicate. After incubation for 2 hr at room temperature, the plate was washed 3× with 150 μl of TBS+ buffer. To each well, biotinylated anti-A4 antibody (R & D Systems) at 1 μg/ml in TBS+/0.1% BSA was added and the plate covered and incubated for 1 hr at room temperature. After washing the plate 3× with TBS+ buffer, streptavidin-conjugated horseradish peroxidase (R & D Systems) diluted in TBS+ blocking buffer was added to the wells and the plate incubated for 20 min at room temperature. The plate was washed 3× with TBS+ buffer followed by addition of 50 μl of TMB substrate (Sigma T4444). After incubation for 20 min at room temperature, plates were stopped with TMB stop solution (Sigma S5689) by colorimetric detection at 450 nm wavelength using a Tecan Safire II plate reader.

VLA-4 (a4b1) = VLA-4 (a4b1) (Homo sapiens (Human), UniProt P05556+P13612); test: sVCAM flow cytometry cell-based assay (inhibition of soluble VCAM-1 binding to G2 ALL cells);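 also: compounds at 0.1 to 1000 nM preincubated 30 min with G2 ALL cells, then VCAM/Fc added for 30 min, bound VCAM-1 detected by PE secondary antibody, percent binding cells by flow cytometry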
VLA-4 (a4b1), sequence (P13612 34-1032): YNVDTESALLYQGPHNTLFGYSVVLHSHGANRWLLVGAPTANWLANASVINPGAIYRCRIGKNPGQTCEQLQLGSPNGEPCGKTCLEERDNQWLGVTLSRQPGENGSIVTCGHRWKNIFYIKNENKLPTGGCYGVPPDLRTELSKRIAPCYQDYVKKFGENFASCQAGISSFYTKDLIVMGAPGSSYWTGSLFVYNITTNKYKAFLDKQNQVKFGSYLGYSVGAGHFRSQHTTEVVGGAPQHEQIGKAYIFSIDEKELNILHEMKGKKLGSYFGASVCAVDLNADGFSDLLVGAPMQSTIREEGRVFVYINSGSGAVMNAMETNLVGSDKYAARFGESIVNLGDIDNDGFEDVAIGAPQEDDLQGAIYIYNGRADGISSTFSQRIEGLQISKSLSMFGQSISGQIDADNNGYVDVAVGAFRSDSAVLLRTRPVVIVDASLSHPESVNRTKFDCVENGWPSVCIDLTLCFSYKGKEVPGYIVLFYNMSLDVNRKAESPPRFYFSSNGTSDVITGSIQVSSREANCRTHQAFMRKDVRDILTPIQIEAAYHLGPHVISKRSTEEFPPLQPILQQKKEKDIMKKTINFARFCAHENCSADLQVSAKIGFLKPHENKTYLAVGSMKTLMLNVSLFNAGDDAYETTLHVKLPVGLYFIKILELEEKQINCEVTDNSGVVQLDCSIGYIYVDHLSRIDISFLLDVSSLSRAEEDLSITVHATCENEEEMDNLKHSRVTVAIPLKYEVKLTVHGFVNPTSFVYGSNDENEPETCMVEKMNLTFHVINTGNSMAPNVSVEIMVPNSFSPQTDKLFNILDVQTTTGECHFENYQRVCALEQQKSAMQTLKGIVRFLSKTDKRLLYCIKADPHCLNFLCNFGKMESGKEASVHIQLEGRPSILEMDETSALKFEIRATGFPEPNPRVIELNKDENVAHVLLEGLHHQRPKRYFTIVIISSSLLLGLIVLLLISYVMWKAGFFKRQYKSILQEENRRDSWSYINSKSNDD
VLA-4 (a4b1), sequence (P05556 21-798): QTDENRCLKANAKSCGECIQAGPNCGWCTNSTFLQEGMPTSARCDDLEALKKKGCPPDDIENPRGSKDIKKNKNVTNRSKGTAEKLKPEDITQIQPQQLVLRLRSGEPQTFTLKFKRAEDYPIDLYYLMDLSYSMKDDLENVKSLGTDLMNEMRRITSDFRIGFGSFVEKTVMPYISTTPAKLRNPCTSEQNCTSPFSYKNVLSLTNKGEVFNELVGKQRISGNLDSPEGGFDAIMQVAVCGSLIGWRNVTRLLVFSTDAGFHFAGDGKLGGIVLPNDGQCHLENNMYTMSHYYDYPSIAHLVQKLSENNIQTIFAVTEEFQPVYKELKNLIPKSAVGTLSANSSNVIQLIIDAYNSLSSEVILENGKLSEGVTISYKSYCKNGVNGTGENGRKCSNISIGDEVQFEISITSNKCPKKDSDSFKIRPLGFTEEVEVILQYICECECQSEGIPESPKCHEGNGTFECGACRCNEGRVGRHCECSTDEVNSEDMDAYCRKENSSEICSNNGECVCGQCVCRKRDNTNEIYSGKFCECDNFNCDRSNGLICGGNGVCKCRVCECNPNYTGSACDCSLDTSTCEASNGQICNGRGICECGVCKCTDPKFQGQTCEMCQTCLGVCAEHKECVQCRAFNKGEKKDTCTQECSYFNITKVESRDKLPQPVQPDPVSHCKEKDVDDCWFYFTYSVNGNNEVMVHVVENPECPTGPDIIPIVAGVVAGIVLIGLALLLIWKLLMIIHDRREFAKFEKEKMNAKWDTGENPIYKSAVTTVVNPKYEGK
Protocol: VLA-4 (a4b1) inhibitor compounds were tested for their ability to inhibit the binding of soluble VCAM-1 to human G2 acute lymphoblastic leukemia (ALL) cells. Briefly, G2 ALL cells are pre-incubated with increasing concentrations (0.1 to 1000 nM) of compounds for 30 minutes. Soluble VCAM/Fc chimera protein (R & D systems) is then added to the mixture and the cells incubated for an additional 30 minutes. Afterwards, cells are washed and VCAM-1 is detected using a PE-conjugated secondary polyclonal antibody. In each experiment, an aliquot of cells are stained with isotype control antibodies to serve as a negative control. The percentage of VCAM-1 binding cells was then determined by flow cytometry.

[2] = as listed in TABLE 12, read-out: sVCAM IC50
[3] = inhibition of sVCAM-1 binding to human G2 ALL cells (TABLE 3), read-out: SVCAM-1, IC50

COc1cccc(OC)c1-c1ccc(C[C@H](CC(=O)c2c(Cl)cc(C(=O)O)cc2Cl)C(=O)O)cc1 [Example C1]
time to which HSPC mobilization is extended after a single dose [1]: ≤ 2 h | HSPC mobilization, result in words ([1]; single dose): have returned to baseline | No. CFU (×10^3)/mL ± SD, 0.5 hr ([1]; single dose, peripheral blood, 0.5 hr post dose (TABLE 7)): 0.96 ± 0.33 (×10^3)/mL | No. CFU (×10^3)/mL ± SD, 1 hr ([1]; single dose, peripheral blood, 1 hr post dose (TABLE 20)): 2.16 ± 1.22 (×10^3)/mL | No. CFU (×10^3)/mL ± SD, 2 hr ([1]; single dose, peripheral blood, 2 hr post dose (TABLE 7)): 0.33 ± 0.14 (×10^3)/mL | No. CFU (×10^3)/mL ± SD, 4 hr ([1]; single dose, peripheral blood, 4 hr post dose (TABLE 7)): 0.08 ± 0.04 (×10^3)/mL | No. CFU (×10^3)/mL ± SD, 4 hr ([1]; single dose, peripheral blood, 4 hr post dose (TABLE 20)): 0.26 ± 0.18 (×10^3)/mL | No. CFU (×10^3)/mL ± SD, 8 hr ([1]; single dose, peripheral blood, 8 hr post dose (TABLE 20)): 0.13 ± 0.10 (×10^3)/mL | HSPC mobilization, result in words ([1]; single dose, listed as Comparator Compound 1): returned to baseline by 4 hours | No. CFU (x10^3)/mL ± SD, 2 hr ([1]; peripheral blood): 0.67 ± 0.12 (x10^3)/mL | No. CFU (x10^3)/mL ± SD, 4 hr ([1]; peripheral blood): 0.42 ± 0.14 (x10^3)/mL | No. CFU (x10^3)/mL ± SD, 6 hr ([1]; peripheral blood): 0.26 ± 0.07 (x10^3)/mL | No. CFU (x10^3)/mL ± SD, 8 hr ([1]; peripheral blood): 0.22 ± 0.02 (x10^3)/mL | No. CFU (×10^3)/mL ± SD, 0.25 hr ([1]; single s.c. injection, peripheral blood, 0.25 hr post dose (TABLE 5)): 3.98 ± 1.09 (×10^3)/mL | No. CFU (×10^3)/mL ± SD, 2 hr ([1]; single s.c. injection, peripheral blood, 2 hr post dose (TABLE 5)): 0.86 ± 0.25 (×10^3)/mL | No. CFU (×10^3)/mL ± SD, 4 hr ([1]; single s.c. injection, peripheral blood, 4 hr post dose (TABLE 5)): 0.27 ± 0.20 (×10^3)/mL | IC50 (integrin a4b7): 1.1 nM | IC50 (VLA-4 (a4b1); as listed in TABLE 5, read-out: sVCAM IC50): 4.9 nM | IC50 (VLA-4 (a4b1); as listed in TABLE 7, read-out: sVCAM IC50): 4.9 nM | IC50 (VLA-4 (a4b1); [2]): 4.9 nM | IC50 (VLA-4 (a4b1); as listed in TABLE 20, read-out: sVCAM IC50): 4.9 nM | IC50 (VLA-4 (a4b1); [3]): 4.98 nM

COCCOCCOCCOCCOCCOCCOCCOCCOCCOCCOCCOCCOCCOCCOCCOCCOCCOCCOCCOCCOCCOCCOCCOCCOCc1cc(OC)c(-c2ccc(C[C@H](NC(=O)c3c(Cl)cc(C(=O)O)cc3Cl)C(=O)O)cc2)c(OC)c1 [Example C17, (S)-4-((1-carboxy-2-(2′,6′-dimethoxy-4′-(2,5,8,11,14,17,20,23,26,29,32,35,38,41,44,47,50,53,56,59,62,65,68,71,74-pentacosaoxapentaheptacontyl)-[1,1′-biphenyl]-4-yl)ethyl)carbamoyl)-3,5-dichlorobenzoic acid]
HSPC mobilization in the triple combination regimen with plerixafor and truncated Groβ [1]: does not extend mobilization out to 6 hours | time to which HSPC mobilization is extended after a single dose [1]: ≤ 2 h | No. CFU (×10^3)/mL ± SD, 2 hr ([1]; alone or in combination with Plerixafor and tGroβ, peripheral blood, 2 hr (TABLE 17)): 4.77 ± 1.21 (×10^3)/mL | No. CFU (×10^3)/mL ± SD, 4 hr ([1]; alone or in combination with Plerixafor and tGroβ, peripheral blood, 4 hr (TABLE 17)): 0.81 ± 0.26 (×10^3)/mL | No. CFU (×10^3)/mL ± SD, 6 hr ([1]; alone or in combination with Plerixafor and tGroβ, peripheral blood, 6 hr (TABLE 17)): 0.26 ± 0.13 (×10^3)/mL | HSPC mobilization, result in words ([1]; single dose): returning to baseline by 4 hours and no mobilization at 6 hours; also recorded: does not extend mobilization; also recorded: do not provide for extended mobilization | No. CFU (×10^3)/mL ± SD, 2 hr ([1]; single dose, peripheral blood, 2 hr post dose (TABLE 10)): 3.67 ± 1.09 (×10^3)/mL | No. CFU (×10^3)/mL ± SD, 4 hr ([1]; single dose, peripheral blood, 4 hr post dose (TABLE 10)): 0.57 ± 0.21 (×10^3)/mL | No. CFU (×10^3)/mL ± SD, 6 hr ([1]; single dose, peripheral blood, 6 hr post dose (TABLE 10)): 0.28 ± 0.17 (×10^3)/mL | No. CFU (x10^3)/mL ± SD, 2 hr ([1]; peripheral blood): 4.32 ± 1.23 (x10^3)/mL | No. CFU (x10^3)/mL ± SD, 4 hr ([1]; peripheral blood): 1.21 ± 0.40 (x10^3)/mL | No. CFU (x10^3)/mL ± SD, 6 hr ([1]; peripheral blood): 0.26 ± 0.07 (x10^3)/mL | No. CFU (x10^3)/mL ± SD, 8 hr ([1]; peripheral blood): 0.19 ± 0.09 (x10^3)/mL | IC50 (integrin a4b7): 1.5 nM | IC50 (VLA-4 (a4b1); as listed in TABLE 10, read-out: sVCAM IC50): 1.49 nM | IC50 (VLA-4 (a4b1); [2]): 1.49 nM | IC50 (VLA-4 (a4b1); as listed in TABLE 17, read-out: sVCAM IC50): 1.49 nM | IC50 (VLA-4 (a4b1); [3]): 1.49 nM
